The conditions of series [1]: Crystal; DTA.
The nature of series [2]: Molar enthalpy of transition or fusion. The settings on record: Crystal; DSC.

Structures are written as SMILES. ± gives the expanded uncertainty stated by the source.

Consider 3 compounds from the NIST ThermoML archive (doi:10.1016/j.fluid.2015.02.007).

For `O=C(O)c1cccnc1Nc1cccc(C(F)(F)F)c1`, the Normal melting temperature in series [1] was determined as 204.00 ± 1.5 °C. The “Molar enthalpy of transition or fusion” value in series [2] was 8.38 ± 0.182 kcal/mol.
In the case of `Cc1c(Cl)cccc1Nc1ccccc1C(=O)O` [2-[(3-chloro-2-methylphenyl)amino]benzoic acid], the Normal melting temperature in series [1] was 214.00 ± 1.1 °C. Moreover, in series [2], the “Molar enthalpy of transition or fusion” value is 7.52 ± 0.165 kcal/mol.
For `O=C(O)c1ccccc1Nc1cccc(Cl)c1Cl` [clofenamic acid] the same measures were 171.00 ± 0.88 °C and 7.26 ± 0.16 kcal/mol.
